Molecular target: human IRAK4 (Homo sapiens (Human), UniProt Q9NWZ3)
Assay: IRAK4 kinase inhibition, Transcreener fluorescence polarization ADP assay
Assay type: biochemical
Conditions: recombinant full-length His6-IRAK4; 125 uM ATP; 90 min; Ki computed using ATP Km 642 uM
Description: Compounds were assayed for inhibition of human IRAK4 and IRAK1 catalytic activity using recombinant enzyme produced from insect cells. Full-length IRAK4 protein, carrying an N-terminal His6-Tag, was obtained from Life Technologies (Carlsbad, Calif., USA). The IRAK1 construct was produced internally and was comprised of IRAK1 residues Arg194 to Ser712, preceded by an NH2-terminal His6 tag and the coding sequence for glutathione-S-transferase.

human IRAK4, sequence (Q9NWZ3 whole entry): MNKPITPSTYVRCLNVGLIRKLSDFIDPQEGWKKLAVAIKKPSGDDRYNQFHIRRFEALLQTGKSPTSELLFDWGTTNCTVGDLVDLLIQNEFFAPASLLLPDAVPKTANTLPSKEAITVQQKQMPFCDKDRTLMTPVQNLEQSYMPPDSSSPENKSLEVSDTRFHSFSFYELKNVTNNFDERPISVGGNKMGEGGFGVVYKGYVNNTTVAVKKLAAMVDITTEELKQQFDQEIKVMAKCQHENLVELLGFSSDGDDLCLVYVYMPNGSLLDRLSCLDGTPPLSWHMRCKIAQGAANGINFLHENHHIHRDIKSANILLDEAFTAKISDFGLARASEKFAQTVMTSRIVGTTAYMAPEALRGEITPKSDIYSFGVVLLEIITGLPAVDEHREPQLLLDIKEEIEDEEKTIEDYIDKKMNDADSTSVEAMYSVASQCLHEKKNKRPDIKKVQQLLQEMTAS

| SMILES | Ki [nM] |
| --- | --- |
| CC(C)C(=O)N1CCN(c2cc3c(cc2NC(=O)c2cnn4cccnc24)CC(C)(C)O3)CC1 [Example 219, N-(6-(4-isobutyrylpiperazin-1-yl)-2,2-dimethyl-2,3-dihydrobenzofuran-5-yl)pyrazolo[1,5-a]pyrimidine-3-carboxamide] | 82 |
| C[C@@]1(CO)Cc2cc(NC(=O)c3cnn4cccnc34)c(N3CCN(CC(F)F)CC3)cc2O1 [Example 99, N-[(2S)-6-[4-(2,2-difluoroethyl)piperazin-1-yl]-2-(hydroxymethyl)-2-methyl-3H-benzofuran-5-yl]pyrazolo[1,5-a]pyrimidine-3-carboxamide] | 3.3 |
| CN(C)C1CCN(c2cc3c(cc2NC(=O)c2cnn4cccnc24)CC(C)(C)O3)CC1 [Example 532, N-[6-[4-(dimethylamino)-1-piperidyl]-2,2-dimethyl-3H-benzofuran-5-yl]pyrazolo[1,5-a]pyrimidine-3-carboxamide] | 7.2 |
| CC1(C)Cc2cc(NC(=O)c3cnn4cccnc34)c(N3CCN(CCC#N)CC3)cc2O1 [Example 457, N-(6-(4-(2-cyanoethyl)piperazin-1-yl)-2,2-dimethyl-2,3-dihydrobenzofuran-5-yl)pyrazolo[1,5-a]pyrimidine-3-carboxamide] | 4.4 |
| C[C@]1(CO)Cc2cc(NC(=O)c3cnn4cccnc34)c(N3Cc4cccnc4C3)cc2O1 (single isomer, unassigned) [Example 419] | 9 |
| O=C(Nc1cc2c(cc1N1CCOCC1)O[C@](CO)(C(F)(F)F)C2)c1cnn2cccnc12 [Example 153, (R)—N-(2-(hydroxymethyl)-6-morpholino-2-(trifluoromethyl)-2,3-dihydrobenzofuran-5-yl)pyrazolo[1,5-a]pyrimidine-3-carboxamide] | 14 |
| O=C(Nc1cc2c(cc1N1CCOCC1)OC1(C2)CN(CC(F)F)C1)c1cnn2cccnc12 [Example 147, N-(1-(2,2-Difluoroethyl)-6′-morpholino-3′H-spiro[azetidine-3,2′-benzofuran]-5′-yl)pyrazolo[1,5-a]pyrimidine-3-carboxamide] | 23 |
| CNC(=O)[C@]1(C)Cc2cc(NC(=O)c3cnn4cccnc34)c(N3CCOCC3)cc2O1 [Example 48, (S)—N-(2-Methyl-2-(methylcarbamoyl)-6-morpholino-2,3-dihydrobenzofuran-5-yl)pyrazolo[1,5-a]pyrimidine-3-carboxamide] | 190 |
| C[C@@]1(CO)Cc2cc(NC(=O)c3cnn4cccnc34)c(N3CCC(F)(CO)CC3)cc2O1 (single isomer, unassigned) [Example 45] | 1.9 |
| O=C(Nc1cc2c(cc1N1CCC(F)(CO)CC1)O[C@@](CO)(C(F)(F)F)C2)c1cnn2cccnc12 [Example 319, (S)-N-(6-(4-fluoro-4-(hydroxymethyl)piperidin-1-yl)-2-(hydroxymethyl)-2-(trifluoromethyl)-2,3-dihydrobenzofuran-5-yl)pyrazolo[1,5-a]pyrimidine-3-carboxamide] | 3.1 |
| C[C@@]1(CO)Cc2cc(NC(=O)c3cnn4cccnc34)c(N3CCC(C4(O)CC4)CC3)cc2O1 [Example 342, N-[(2S)-6-[4-(1-hydroxycyclopropyl)-1-piperidyl]-2-(hydroxymethyl)-2-methyl-3H-benzofuran-5-yl]pyrazolo[1,5-a]pyrimidine-3-carboxamide] | 3.9 |
| CC1(CO)Cc2cc(NC(=O)c3cnn4cc(Cl)cnc34)c(N3CCN(CC(F)F)CC3)cc2O1 (centres unmarked) [Example 168] | 3.6 |
| CN1CC2(Cc3cc(NC(=O)c4cnn5cccnc45)c(N4CCOCC4)cc3O2)C1 [Example 146, N-(1-methyl-6′-morpholino-3′H-spiro[azetidine-3,2′-benzofuran]-5′-yl)pyrazolo[1,5-a]pyrimidine-3-carboxamide] | 27 |
| CC(CC(C)(C)O)N1Cc2cc(NC(=O)c3cnn4cccnc34)c(N3CCOCC3)cc2C1=O (stereo in doubt) [Example 545, N-[2-[(1R)-3-hydroxy-1,3-dimethyl-butyl]-6-morpholino-1-oxo-isoindolin-5-yl]pyrazolo[1,5-a]pyrimidine-3-carboxamide] | 5.9 |
| C[C@@]1(CO)Cc2cc(NC(=O)c3cnn4cccnc34)c(OC(F)(F)F)cc2O1 [Example 172, (S)—N-(2-(hydroxymethyl)-2-methyl-6-(trifluoromethoxy)-2,3-dihydrobenzofuran-5-yl)pyrazolo[1,5-a]pyrimidine-3-carboxamide] | 16 |

The remaining lines, values ahead:

| Ki [nM] | SMILES |
| --- | --- |
| 6.5 | CC1(C)Cc2cc(NC(=O)c3cnn4cccnc34)c(N3CCN(CCn4cccn4)CC3)cc2O1 [Example 462, N-(6-(4-(2-(1H-pyrazol-1-yl)ethyl)piperazin-1-yl)-2,2-dimethyl-2,3-dihydrobenzofuran-5-yl)pyrazolo[1,5-a]pyrimidine-3-carboxamide] |
| 19 | C[C@]1(CO)Cc2cc(NC(=O)c3cnn4cccnc34)c(N3CCN(CCO)CC3)cc2O1 [Example 87, N-[(2R)-6-[4-(2-Hydroxyethyl)piperazin-1-yl]-2-(hydroxymethyl)-2-methyl-3H-benzofuran-5-yl]pyrazolo[1,5-a]pyrimidine-3-carboxamide] |
| 6.5 | CC1(C)Cc2cc(NC(=O)c3cnn4cc(CO)cnc34)c(N3CCOCC3)cc2O1 [Example 471, N-(2,2-dimethyl-6-morpholino-3H-benzofuran-5-yl)-6-(hydroxymethyl)pyrazolo[1,5-a]pyrimidine-3-carboxamide] |
| 2.1 | O=C(Nc1cc2c(cc1N1CCOCC1)C(=O)N(C[C@H]1CCC[C@@H]1O)C2)c1cnn2cccnc12 (stereo in doubt) [Example 550, N-[2-[[(1R,2S)-2-hydroxycyclopentyl]methyl]-6-morpholino-1-oxo-isoindolin-5-yl]pyrazolo[1,5-a]pyrimidine-3-carboxamide] |
| 6 | C[C@]1(O)CCCN(c2cc3c(cc2NC(=O)c2cnn4cccnc24)C[C@@](C)(CO)O3)CC1 [Example 332, N-((S)-6-((S)-4-hydroxy-4-methylazepan-1-yl)-2-(hydroxymethyl)-2-methyl-2,3-dihydrobenzofuran-5-yl)pyrazolo[1,5-a]pyrimidine-3-carboxamide] |
| 26 | O=C(Nc1cc2c(cc1N1CCOCC1)C(=O)N(C1CCOC1)C2)c1cnn2cccnc12 (single isomer, unassigned) [Example 276, N-(6-morpholino-1-oxo-2-(tetrahydrofuran-3-yl)isoindolin-5-yl)pyrazolo[1,5-a]pyrimidine-3-carboxamide] |
| 2 | CC1(C)Cc2cc(NC(=O)c3cnn4cccnc34)c(N3CCC(F)(C(N)=O)CC3)cc2O1 [Example 534, N-[6-(4-carbamoyl-4-fluoro-1-piperidyl)-2,2-dimethyl-3H-benzofuran-5-yl]pyrazolo[1,5-a]pyrimidine-3-carboxamide] |
| 53 | CCC(O)(CC)CN1CCN(c2cc3c(cc2NC(=O)c2cnn4cccnc24)CC(C)(C)O3)CC1 [Example 435, N-(6-(4-(2-Ethyl-2-hydroxybutyl)piperazin-1-yl)-2,2-dimethyl-2,3-dihydrobenzofuran-5-yl)pyrazolo[1,5-a]pyrimidine-3-carboxamide] |
| 9.5 | C[C@@H](O)CN1CCN(c2cc3c(cc2NC(=O)c2cnn4cccnc24)CC(C)(C)O3)CC1 [Example 475, (R)-N-(6-(4-(2-hydroxypropyl)piperazin-1-yl)-2,2-dimethyl-2,3-dihydrobenzofuran-5-yl)pyrazolo[1,5-a]pyrimidine-3-carboxamide] |
| 220 | Cn1cnc(COc2cc3c(cc2NC(=O)c2cnn4cccnc24)CC(C)(C)O3)c1 [Example 538, N-(2,2-dimethyl-6-((1-methyl-1H-imidazol-4-yl)methoxy)-2,3-dihydrobenzofuran-5-yl)pyrazolo[1,5-a]pyrimidine-3-carboxamide] |
| 7.6 | C[C@@]1(CO)Cc2cc(NC(=O)c3cnn4cccnc34)c(N3CCN(CCO)CC3)cc2O1 [Example 88, N-[(2S)-6-[4-(2-Hydroxyethyl)piperazin-1-yl]-2-(hydroxymethyl)-2-methyl-3H-benzofuran-5-yl]pyrazolo[1,5-a]pyrimidine-3-carboxamide] |
| 4 | NC(=O)CN1CCN(c2cc3c(cc2NC(=O)c2cnn4cccnc24)CN(CC(F)(F)F)C3=O)CC1 [Example 265, N-[6-[4-(2-Amino-2-oxo-ethyl)piperazin-1-yl]-1-oxo-2-(2,2,2-trifluoroethyl)isoindolin-5-yl]pyrazolo[1,5-a]pyrimidine-3-carboxamide] |
| 43 | CC(C)N1CCN(c2cc3c(cc2NC(=O)c2cnn4cccnc24)CC(C)(C)O3)CC1 [Example 508, N-(6-(4-isopropylpiperazin-1-yl)-2,2-dimethyl-2,3-dihydrobenzofuran-5-yl)pyrazolo[1,5-a]pyrimidine-3-carboxamide] |
| 6.7 | CC1(C)Cc2cc(NC(=O)c3cnn4cccnc34)c(N3CC[C@H](CO)C3)cc2O1 [Example 13, (S)—N-(6-(3-(hydroxymethyl)pyrrolidin-1-yl)-2,2-dimethyl-2,3-dihydrobenzofuran-5-yl)pyrazolo[1,5-a]pyrimidine-3-carboxamide] |
| 16 | CC1(CC#N)Cc2cc(NC(=O)c3cnn4cccnc34)c(N3CCOCC3)cc2O1 (centres unmarked) [Example 386, N-[2-(Cyanomethyl)-2-methyl-6-morpholino-3H-benzofuran-5-yl]pyrazolo[1,5-a]pyrimidine-3-carboxamide] |
| 170 | CC1(C)Cc2cc(NC(=O)c3cnn4cccnc34)c(N3CCN(C(C)(C)CO)CC3)cc2O1 [Example 137, N-[6-[4-(2-Hydroxy-1,1-dimethyl-ethyl)piperazin-1-yl]-2,2-dimethyl-3H-benzofuran-5-yl]pyrazolo[1,5-a]pyrimidine-3-carboxamide] |
| 610 | Cn1cnc(-c2cc3c(cc2NC(=O)c2cnn4cccnc24)CC(C)(C)O3)c1 [Example 488, N-[2,2-Dimethyl-6-(1-methylimidazol-4-yl)-3H-benzofuran-5-yl]pyrazolo[1,5-a]pyrimidine-3-carboxamide] |
